Data: patent publication US4510085A, “Antihypertensive tetrapeptide amides” (G.D. Searle & Co., priority 1984, dated 1985)
Non-standard residues stand in square brackets, D forms with d. Residues, ends and D or L forms follow the SMILES beside them. No end group written: not given here. *: point of attachment. NH(2-adamantyl) = C1C2CC3CC1CC(C2)C3N*; 2Nal = N[C@@H](Cc1ccc2ccccc2c1)C(=O)O; Sta = CC(C)C[C@H](N)[C@@H](O)CC(=O)O; NEtPhe = CCN[C@@H](Cc1ccccc1)C(=O)O; Isovaleryl = CC(C)CC(=O)*

Key:
human renin = target: T1, human renin (Homo sapiens, UniProt P00797); assay: Inhibition of Human Renin; assay type: biochemical; settings: angiotensin I formed by radioimmunoassay; considered active if inhibition was greater than 20%
T1 construct: tissue World Health Organization International Laboratory for Biological Standards (National Institute for Biological Standards and Control, London, England); host or cells: human kidney
T1 sequence (P00797 67-406): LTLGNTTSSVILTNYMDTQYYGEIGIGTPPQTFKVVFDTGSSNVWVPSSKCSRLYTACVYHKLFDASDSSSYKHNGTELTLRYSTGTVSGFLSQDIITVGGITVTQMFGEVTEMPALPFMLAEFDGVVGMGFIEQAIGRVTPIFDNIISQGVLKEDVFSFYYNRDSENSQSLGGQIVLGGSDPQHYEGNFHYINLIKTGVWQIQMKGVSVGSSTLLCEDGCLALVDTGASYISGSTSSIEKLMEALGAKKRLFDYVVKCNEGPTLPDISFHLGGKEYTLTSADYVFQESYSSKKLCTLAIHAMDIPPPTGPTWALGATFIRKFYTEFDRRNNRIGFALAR
Protocol: The renin inhibition activity of the compounds of this invention illustrated in the examples was tested by the following method.
International reference standard human renin, isolated from kidneys, was obtained from the World Health Organization International Laboratory for Biological Standards (National Institute for Biological Standards and Control, London, England). Renin activity is defined in "Goldblatt units" (GU), the quantity that, when injected directly into the blood stream of an unanesthetized dog, raises the direct mean femoral artery blood pressure by 30 mm Hg in about two minutes. E. Haas, L. Lewis, P. Scipione, and T. J. Koshy, Hypertension, 1, 112-117 (1979). Human angiotensinogen was used as an unisolated component of human blood plasma. The enzyme inhibition assay, see K. Poulsen, J. Burton, and E. Haber, Biochemistry, 12, 3877-3882 (1973), involved a two-hour incubation at 37° C. of the following final concentrations of reagents (0.25 ml total volume): 0.1 mGU/ml human renin; 0.05 ml human plasma; 6 mM disodium EDTA; 2.4 mM phenylmethylsulfonyl fluoride and 1.5 mM 8-hydroxyquinoline (angiotensinase inhibitors); 0.4 mg/ml bovine serum albumin; and 0.024 neomycin sulfate in 100 mM Tris-acetate buffer (pH 7.5). The enzymatic reaction was terminated by boiling the mixture for ten minutes. The quantity of angiotensin I formed was determined by radioimmunoassay, using the general method used in the angiotensin I radioimmunoassay kit of New England Nuclear.

Opiate receptor = assay: Opiate Receptor Binding; settings: rat brain membrane homogenates, tritium-labeled naloxone
Protocol: Opiate receptor binding of the compounds of this invention illustrated in the examples was tested by the following method.
A 2 ml portion of the homogenate is incubated at 25° with the test compound (10 mcM) and tritium-labeled naloxone (1.0 nM). After sixty minutes, samples were rapidly cooled on ice, collected over glass-fiber filters, washed with cold buffer, and solubilized by incubation with 1.0 ml of NCS tissue solubilizer. Samples were then prepared for counting in a liquid scintillation counter. Specific binding was calculated, with results expressed as percent inhibition at the test dose.

[1] = system: renal-ligated hypertensive rat; assay: Renal-ligated Hypertensive Rat Assay; assay type: in vivo; settings: renal-ligated rats
Protocol: Male Sprague Dawley rats aged 11 to 15 weeks old were used in this test. […] Test compounds were administered intra-arterially at a dose of 10 mg per kg of body weight, and blood pressure changes were monitored directly at 5, 10, and 15 minutes after injection.

Male Charles River mice = assay: Hot-plate Assay; assay type: in vivo, mouse; settings: subcutaneous, dose active if 50% of the animals showed analgesia
Protocol: (§1) The in vivo analgesic activity of the compounds of this invention illustrated in the examples was tested using the following hot-plate and writhing assays. Tyrosyl-N-(phenylpropyl)-D-alaninamide, a known analog of enkephalin, is active in these assays.
Male Charles River mice (COBS CD-1(ICR)BR) weighing 20 to 30 grams were used in this assay. Two groups of fourteen mice were placed individually in a restraining cylinder placed on a hot plate kept at 55° (±0.5°). The reaction time for each mouse to lick a foot or jump was measured three times at 20 minute intervals. Mice not responding within fifteen seconds were discarded. Twenty minutes after the last reaction experiment ten mice were given a dose of the test compound and ten were given 0.9% saline (each solution containing approximately 0.09 ml of a 1:1 mixture by volume of propylene glycol and polysorbate 80) subcutaneously. The response times of the animals were measured as before at 30, 60, 90, and 120 minute intervals after this injection. Mice not responding within 30 seconds were removed from the hot plate and given a response time of 30 seconds. […] The ED50 of each active test compound was then calculated. See N. B. Eddy, D. Leimbach, J. Pharmacol. and Exp. Therap., 107, 385-393 (1953).

[2] = system: Male Charles River albino mice; assay: PBQ-Writhing Assay; assay type: in vivo, mouse; settings: analgesia if writhes equal to or less than one-half the control median
Protocol: as §1
Male Charles River albino mice (CD-1(ICR)BR) weighing 20 to 30 grams were used in this assay. Thirty minutes after subcutaneous or intragastric administration (0.1 ml per 10 g of body weight) or fifteen minutes after intracerebroventricular administration (5 mcl total volume), a 0.025% solution of phenylbenzoquinone (PBQ) was injected intraperitoneally (0.1 ml per 10 g of body weight). Five minutes later each mouse was placed in a glass beaker and the number of writhes occurring in the next ten minutes was counted. (A writhe consists of dorsoflexion of the back, extension of the hindlimbs, and strong contraction of the abdominal musculature.) The test compound was considered to have produced analgesia in a mouse if the number of writhes elicited by PBQ was equal to or less than one-half the median number of writhes recorded for the saline-treated control group of mice that day. Results were expressed as the number of mice out of a possible ten in which the test compound produced analgesia. […]

[3] = system: sodium depleted Rhesus monkeys; assay: Rhesus Monkey Blood Pressure Test; assay type: in vivo
Protocol: Rhesus monkeys were sodium depleted by means of a fruit diet in combination with intramuscular furosemide injections (0.5 mg per kg of body weight) given twice daily for four days. This procedure causes blood pressure to become dependent on plasma renin activity. J. Burton, R. J. Cody, Jr., A. J. Herd, and E. Haber, Proc. Natl. Acad. Sci. U. S. A., 77, 5476-5479 (1980). On the fifth day the animals were anesthetized with ketamine (100 mg administered intravenously). The femoral artery was cannulated for blood pressure measurement and a percutaneous venous cannula was inserted for test compound administration. The animals were allowed to recover from anesthesia and were restrained in a transparent plastic chair. […]

CCN[C@@H](Cc1ccccc1)C(=O)N[C@H](CCSC)C(=O)NCC(=O)N[C@@H](Cc1ccccc1)C(=O)NC1C2CC3CC(C2)CC1C3.Cl (stereo partly drawn) [Example 15, N^α -ethyl-L-phenylalanyl-D-methionylglycyl-N-(2-adamantyl)-L-phenylalaninamide hydrochloride] (H-[NEtPhe][dM]GF-{NH(2-adamantyl)})
renin inhibition activity (human renin): possess renin inhibition activity | opiate receptor binding relative to prior art compounds of U.S. Pat. No. 4,273,704 (Opiate receptor): significantly lower opiate receptor binding

CSCC[C@@H](NC(=O)[C@@H](N)Cc1ccc2ccccc2c1)C(=O)NCC(=O)N[C@@H](Cc1ccccc1)C(=O)NC1C2CC3CC(C2)CC1C3.Cl (stereo partly drawn) [Example 29, 3-(2-naphthalenyl)-L-alanyl-D-methionylglycyl-N-(2-adamantyl)-L-phenylalaninamide hydrochloride] (H-[2Nal][dM]GF-{NH(2-adamantyl)})
renin inhibition activity (human renin): possess renin inhibition activity | opiate receptor binding relative to prior art compounds of U.S. Pat. No. 4,273,704 (Opiate receptor): significantly lower opiate receptor binding

CC(C)CC(=O)N[C@H](C(=O)N[C@H](C(=O)N[C@@H](CC(C)C)[C@@H](O)CC(=O)N[C@@H](C)C(=O)N[C@@H](CC(C)C)[C@@H](O)CC(=O)O)C(C)C)C(C)C [Pepstatin] (Isovaleryl-VV[Sta]A[Sta]-OH)
renin inhibition activity (human renin): active | plasma renin activity [1]: significantly reduced | mean arterial blood pressure ([1]; intra-arterial administration, significance P≤0.05): significantly reduced

C[C@@H](NC(=O)[C@@H](N)Cc1ccc(O)cc1)C(=O)NCCCc1ccccc1 [Tyrosyl-N-(phenylpropyl)-D-alaninamide]
analgesic activity, hot-plate (Male Charles River mice): active | analgesic activity, PBQ writhing [2]: active

C[C@H](CS)C(=O)N1CCC[C@H]1C(=O)O [captopril]
mean blood pressure ([3]; 0.1 mg per kg): significantly lowered

PHPFHFFVYK [RIP, prolylhistidylprolylphenylalanylhistidylphenylalanylphenylalanylvalyltyros yllysine]
mean blood pressure ([3]; 1.0 mg per kg): significantly lowered
